Tests used:
Vero cells = experiment: Cytotoxicity MTT assay in Vero cells (MNTD, CC50); format: cell-based, African green monkey; conditions: Table S1; Vero cells
CHIKV DRDE-07 = experiment: In vitro screening against CHIKV (CPE inhibition and MTT cell viability); format: cell-based, chikungunya virus; conditions: Table S1, CHIKV-infected Vero cells; for % Cell viability: 72 hpi, MTT assay; for CPE: arbitrary score of cytopathic effect at >48 hpi

Row | Structure (SMILES) | MNTD (Vero cells) [µM] | % Cell viability (CHIKV DRDE-07) [%] | CPE (CHIKV DRDE-07)
1 | CC(=O)Cc1noc(-c2ccccn2)n1 [DCR84, 1-[5-(pyridin-2-yl)-1,2,4-oxadiazol-3-yl]propan-2-one] | 125 | 2.86 | ++++ (>60% (++++))
2 | CC(=O)Cc1noc(-c2ccc(Br)cc2)n1 [DCR85, 1-[5-(4-bromophenyl)-1,2,4-oxadiazol-3-yl]propan-2-one] | 222.34 | 10.38 | ++++ (>60% (++++))
3 | C#CCOC(=O)C1=C(C)NC(=O)NC1c1ccc(OC)cc1 (stereo not drawn) [DCR86, prop-2-yn-1-yl 4-(4-methoxyphenyl)-6-methyl-2-oxo-1,2,3,4-tetrahydropyrimidine-5-carboxylate] | 208.12 | 10.59 | ++++ (>60% (++++))
4 | C#CCOC(=O)C1=C(C)NC(=O)NC1c1ccc(CC)cc1 (stereo not drawn) [DCR87, prop-2-yn-1-yl 4-(4-ethylphenyl)-6-methyl-2-oxo-1,2,3,4-tetrahydropyrimidine-5-carboxylate] | 104.58 | 11.61 | ++++ (>60% (++++))
5 | C#CCOC(=O)C1=C(C)NC(=O)NC1c1ccc(Cl)cc1 (stereo not drawn) [DCR88, prop-2-yn-1-yl 4-(4-chlorophenyl)-6-methyl-2-oxo-1,2,3,4-tetrahydropyrimidine-5-carboxylate] | 205.1 | 11.05 | ++++ (>60% (++++))
6 | C#CCOC(=O)C1=C(C)NC(=O)NC1c1cccc(Cl)c1 (stereo not drawn) [DCR89, prop-2-yn-1-yl 4-(3-chlorophenyl)-6-methyl-2-oxo-1,2,3,4-tetrahydropyrimidine-5-carboxylate] | 205.1 | 10.94 | ++++ (>60% (++++))
7 | C#CCOC(=O)C1=C(C)NC(=O)NC1c1ccc(F)cc1 (stereo not drawn) [DCR90, prop-2-yn-1-yl 4-(4-fluorophenyl)-6-methyl-2-oxo-1,2,3,4-tetrahydropyrimidine-5-carboxylate] | 433.62 | 12.59 | ++++ (>60% (++++))
8 | C#CCOC(=O)C1=C(C)NC(=O)NC1c1ccc(C(F)(F)F)cc1 (stereo not drawn) [DCR91, prop-2-yn-1-yl 6-methyl-2-oxo-4-[4-(trifluoromethyl)phenyl]-1,2,3,4-tetrahydropyrimidine-5-carboxylate] | 369.52 | 13.12 | ++++ (>60% (++++))
9 | C#CCOC(=O)C1=C(C)NC(=O)NC1c1ccccc1 (stereo not drawn) [DCR92, prop-2-yn-1-yl 6-methyl-2-oxo-4-phenyl-1,2,3,4-tetrahydropyrimidine-5-carboxylate] | 462.48 | 12.8 | ++++ (>60% (++++))
10 | C#CCOC(=O)C1=C(C)NC(=O)NC1c1ccc(OCC)cc1 (stereo not drawn) [DCR94, prop-2-yn-1-yl 4-(4-ethoxyphenyl)-6-methyl-2-oxo-1,2,3,4-tetrahydropyrimidine-5-carboxylate] | 198.83 | 19.5 | ++++ (>60% (++++))
11 | C#CCOC(=O)C1=C(C)NC(=O)NC1c1cccc(F)c1 (stereo not drawn) [DCR95, prop-2-yn-1-yl 4-(3-fluorophenyl)-6-methyl-2-oxo-1,2,3,4-tetrahydropyrimidine-5-carboxylate] | 433.62 | 11.54 | ++++ (>60% (++++))
12 | COc1ccc(C2NC(=O)NC(C)=C2C(=O)OCCC(C)C)cc1 (stereo not drawn) [DCR96, 3-methylbutyl 4-(4-methoxyphenyl)-6-methyl-2-oxo-1,2,3,4-tetrahydropyrimidine-5-carboxylate] | 376.06 | 11.71 | ++++ (>60% (++++))
13 | COc1ccc(C2NC(=O)NC(C)=C2C(=O)OCCc2ccccc2)cc1 (stereo not drawn) [DCR97, 2-phenylethyl 4-(4-methoxyphenyl)-6-methyl-2-oxo-1,2,3,4-tetrahydropyrimidine-5-carboxylate] | 170.57 | 11.19 | ++++ (>60% (++++))
14 | C=CCOC(=O)C1=C(C)NC(=O)NC1c1ccc(OC)cc1 (stereo not drawn) [DCR98, prop-2-en-1-yl 4-(4-methoxyphenyl)-6-methyl-2-oxo-1,2,3,4-tetrahydropyrimidine-5-carboxylate] | 413.46 | 12.66 | ++++ (>60% (++++))
15 | COc1ccc(C2NC(=O)NC(C)=C2C(=O)OCC(C)C)cc1 (stereo not drawn) [DCR99, 2-methylpropyl 4-(4-methoxyphenyl)-6-methyl-2-oxo-1,2,3,4-tetrahydropyrimidine-5-carboxylate] | 392.64 | 11.29 | ++++ (>60% (++++))
16 | COc1ccc(C2NC(=O)NC(C)=C2C(=O)OCc2ccc(Cl)cc2)cc1 (stereo not drawn) [DCR100, (4-chlorophenyl)methyl 4-(4-methoxyphenyl)-6-methyl-2-oxo-1,2,3,4-tetrahydropyrimidine-5-carboxylate] | 323.15 | 12.84 | ++++ (>60% (++++))

Row | Structure (SMILES) | MNTD (Vero cells) [µM] | % Cell viability (CHIKV DRDE-07) [%] | CPE (CHIKV DRDE-07)
17 | COc1ccc(COC(=O)C2=C(C)NC(=O)NC2c2ccc(OC)cc2)cc1 (stereo not drawn) [DCR101, 4-methoxybenzyl 4-(4-methoxyphenyl)-6-methyl-2-oxo-1,2,3,4-tetrahydropyrimidine-5-carboxylate] | 250 | 7.02 | ++++ (>60% (++++))
18 | COc1ccc(C2NC(=O)NC(C)=C2C(=O)OCc2ccccc2)cc1 (stereo not drawn) [DCR102, benzyl 4-(4-methoxyphenyl)-6-methyl-2-oxo-1,2,3,4-tetrahydropyrimidine-5-carboxylate] | 250 | 8.11 | ++++ (>60% (++++))
19 | C=C(C)CCOC(=O)C1=C(C)NC(=O)NC1c1ccc(OC)cc1 (stereo not drawn) [DCR103, 3-methylbut-3-en-1-yl 4-(4-methoxyphenyl)-6-methyl-2-oxo-1,2,3,4-tetrahydropyrimidine-5-carboxylate] | 250 | 21.11 | ++++ (>60% (++++))
20 | CC1=C(C(=O)OCC[N+](C)(C)C)C(c2ccc([N+](=O)[O-])cc2)NC(=O)N1 (stereo not drawn) [DCR104, N,N,N-trimethyl-2-({[6-methyl-4-(4-nitrophenyl)-2-oxo-1,2,3,4-tetrahydropyrimidin-5-yl]carbonyl}oxy)ethanaminium] | 125 | 9.09 | ++++ (>60% (++++))
21 | CC1=C(C(=O)OCC[N+](C)(C)C)C(c2ccc(C)cc2)NC(=O)N1 (stereo not drawn) [DCR105, N,N,N-trimethyl-2-({[6-methyl-4-(4-methylphenyl)-2-oxo-1,2,3,4-tetrahydropyrimidin-5-yl]carbonyl}oxy)ethanaminium] | 125 | 2.45 | ++++ (>60% (++++))
22 | CC1=C(C(=O)OCC[N+](C)(C)C)C(c2ccc(Cl)cc2)NC(=O)N1 (stereo not drawn) [DCR106, 2-({[4-(4-chlorophenyl)-6-methyl-2-oxo-1,2,3,4-tetrahydropyrimidin-5-yl]carbonyl}oxy)-N,N,N-trimethylethanaminium] | 62.5 | 3.33 | ++++ (>60% (++++))
23 | COc1ccc(C2NC(=O)NC(C)=C2C(=O)OCC[N+](C)(C)C)cc1 (stereo not drawn) [DCR107, {2‐[4‐(4‐methoxyphenyl)‐6‐methyl‐2‐oxo‐1,2,3,4‐tetrahydropyrimidine‐5‐carbonyloxy]ethyl}trimethylazanium] | 62.5 | 13.22 | ++++ (>60% (++++))
24 | CC1=C(C(=O)OCCN(C)C)C(c2ccc(Cl)cc2)NC(=O)N1 (stereo not drawn) [DCR108, 2-(dimethylamino)ethyl 4-(4-chlorophenyl)-6-methyl-2-oxo-1,2,3,4-tetrahydropyrimidine-5-carboxylate] | 62.5 | 13.99 | ++++ (>60% (++++))
25 | CC1=C(C(=O)OCCN(C)C)C(c2ccc(N(C)C)cc2)NC(=O)N1 (stereo not drawn) [DCR109, 2‐(dimethylamino)ethyl 4‐[4‐(dimethylamino)phenyl]‐6‐methyl‐2‐oxo‐1,2,3,4‐tetrahydropyrimidine‐5‐carboxylate] | 62.5 | 15.11 | ++++ (>60% (++++))
26 | CC1=C(C(=O)OCCN(C)C)C(c2ccc(O)cc2)NC(=O)N1 (stereo not drawn) [DCR110, 2-(dimethylamino)ethyl 4-(4-hydroxyphenyl)-6-methyl-2-oxo-1,2,3,4-tetrahydropyrimidine-5-carboxylate] | 62.5 | 12.01 | ++++ (>60% (++++))
27 | CC1=C(C(=O)OCCN(C)C)C(c2ccc(N(C)C)cc2)NC(=S)N1 (stereo not drawn) [DCR111, 2‐(dimethylamino)ethyl 4‐[4‐(dimethylamino)phenyl]‐6‐methyl‐2‐sulfanylidene‐1,2,3,4‐tetrahydropyrimidine‐5‐carboxylate] | 62.5 | 10.08 | ++++ (>60% (++++))
28 | COc1ccc(C2NC(=O)NC(C)=C2C(=O)OCCN(C)C)cc1 (stereo not drawn) [DCR112, 2-(dimethylamino)ethyl 4-(4-methoxyphenyl)-6-methyl-2-oxo-1,2,3,4-tetrahydropyrimidine-5-carboxylate] | 62.5 | 2.09 | ++++ (>60% (++++))
29 | COc1ccc(C2c3c(ccc4ccccc34)Oc3ccc4ccccc4c32)cc1 [DCR113, 2‐(4‐methoxyphenyl)‐13‐oxapentacyclo[12.8.0.0³,¹².0⁴,⁹.0¹⁷,²²]docosa‐1(14),3,5,7,9,11,15,17(22),18,20‐decaene] | 31.25 | 5.04 | ++++ (>60% (++++))
30 | CCOc1ccc(C2c3c(ccc4ccccc34)Oc3ccc4ccccc4c32)cc1 [DCR114, 2‐(4‐ethoxyphenyl)‐13‐oxapentacyclo[12.8.0.0³,¹².0⁴,⁹.0¹⁷,²²]docosa‐1(14),3,5,7,9,11,15,17(22),18,20‐decaene] | 31.25 | 4.05 | ++++ (>60% (++++))
31 | Clc1ccc(C2c3c(ccc4ccccc34)Oc3ccc4ccccc4c32)cc1 [DCR115, 2‐(4‐chlorophenyl)‐13‐oxapentacyclo[12.8.0.0³,¹².0⁴,⁹.0¹⁷,²²]docosa‐1(14),3,5,7,9,11,15,17(22),18,20‐decaene] | 125 | 17.1 | ++++ (>60% (++++))
